Assay results as given in US7138361B2, “Herbicidal heterocycles” (E. I. du Pont de Nemours and Company, priority 2000, dated 2006).

Assays:
Format in all cases: in vivo
Nightshade = experiment: Test C preemergence
Sunflower [1] = experiment: Test C preemergence; conditions: Rate 125 g/ha; scale 0 to 100, 0 no effect, 100 complete control
[2] = system: Surinam grass (Brachiaria decumbens); experiment: Test C preemergence
How it was run: (§1)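 Compounds in non-phytotoxic solvent with surfactant applied preemergence to planted seeds and postemergence to plants at 1- to 4-leaf stage (2–18 cm). Kept in greenhouse 12–14 days, then visually rated against controls on a 0 (no effect) to 100 (complete control) scale.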

[3] = system: bermudagrass (Cynodon dactylon); experiment: Test C preemergence
How it was run: as §1

[4] = system: cocklebur (Xanthium strumarium); experiment: Test C preemergence
How it was run: as §1

[5] = system: common ragweed (Ambrosia elatior); experiment: Test C preemergence
How it was run: as §1

corn (Zea mays) = experiment: Test C preemergence
How it was run: as §1

[6] = system: crabgrass (Digitaria sanguinalis); experiment: Test C preemergence
How it was run: as §1

[7] = system: giant foxtail (Setaria faberii); experiment: Test C preemergence
How it was run: as §1

[8] = system: goosegrass (Eleusine indica); experiment: Test C preemergence
How it was run: as §1

[9] = system: johnsongrass (Sorghum halepense); experiment: Test C preemergence; conditions: for Plant response rating, Johnsongrass: scale 0 to 100, 0 no effect, 100 complete control
How it was run: as §1

kochia (Kochia scoparia) = experiment: Test C preemergence
How it was run: as §1

[10] = system: lambsquarters (Chenopodium album); experiment: Test C preemergence
How it was run: as §1

[11] = system: morningglory (Ipomoea hederacea); experiment: Test C preemergence
How it was run: as §1

[12] = system: pigweed (Amaranthus retroflexus); experiment: Test C preemergence
How it was run: as §1

soybean (Glycine max) = experiment: Test C preemergence
How it was run: as §1

[13] = system: velvetleaf (Abutilon theophrasti); experiment: Test C preemergence
How it was run: as §1

[14] = system: woolly cupgrass (Eriochloa villosa); experiment: Test C preemergence
How it was run: as §1

[15] = system: yellow nutsedge (Cyperus esculentus); experiment: Test C preemergence
How it was run: as §1

[16] = system: barnyardgrass (Echinochloa crus-galli); experiment: Test C flooded paddy test; conditions: for Barnyardgrass plant response rating: Flooded Paddy, scale 0 to 100, 0 no effect, 100 complete control; for Plant response rating, Barnyardgrass: flooded paddy test, scale 0 to 100 (0 no effect, 100 complete control)
How it was run: (§2)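 Rice and three paddy weeds were grown to the 2-leaf stage under flooded conditions, then treated and kept in a greenhouse for 12–14 days. Response was rated visually against untreated controls on a 0–100 scale, where 100 is complete control.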

rice (Oryza saliva) = experiment: Test C flooded paddy test; conditions: for Rice plant response rating: Flooded Paddy, scale 0 to 100, 0 no effect, 100 complete control; for Plant response rating, Rice: flooded paddy test, scale 0 to 100 (0 no effect, 100 complete control)
How it was run: as §2

Sunflower [17] = experiment: Test C preemergence; conditions: Rate 500 g/ha, visual evaluation after 12 to 14 days
[18] = Rate 125 g/ha, scale 0 to 100, 0 no effect, 100 complete control
[19] = preemergence, Rate 62 g/ha, scale 0 to 100
[20] = preemergence, Rate 500 g/ha, visual evaluation after 12 to 14 days
[21] = preemergence, Rate 250 g/ha, scale 0 to 100, 0 no effect, 100 complete control

CCCOc1cc(N2CCC(n3ccc(C(C)(C)C)n3)C2=O)ccc1C (centres unmarked) [Compound 107]
10: Plant response rating (0 to 100), Corn (corn (Zea mays); [20]) | Plant response rating, Goosegrass [8, 19]
50: Plant response rating (0 to 100), Johnsongrass [9, 20] | Plant response rating, Johnsongrass ([9]; preemergence, Rate 250 g/ha) | Plant response rating, Velvetleaf [13, 18] | Plant response rating, Velvetleaf [13, 21] | Plant response rating, Cupgrass, Woolly [14, 19]
90: Plant response rating, Nightshade (Nightshade; [18]) | Plant response rating, Nightshade (Nightshade; Rate 250 g/ha, scale 0 to 100, 0 no effect, 100 complete control) | Plant response rating, Lambsquarters [10, 19] | Plant response rating, Pigweed [12, 19]
40: Plant response rating, Soybean (soybean (Glycine max); [21]) | Plant response rating, Velvetleaf [13, 19]
0: Plant response rating, Sunflower (Sunflower [1]) | Plant response rating, Surinam grass [2, 18] | Plant response rating, Surinam grass [2, 19] | Plant response rating (0 to 100), Surinam grass [2, 20] | Plant response rating, Surinam grass [2, 21] | Plant response rating, Cocklebur [4, 18] | Plant response rating, Cocklebur [4, 19] | Plant response rating (0 to 100), Cocklebur [4, 20] | Plant response rating, Cocklebur [4, 21] | Plant response rating, Ragweed, Common [5, 19] | Plant response rating, Corn (corn (Zea mays); [18]) | Plant response rating, Corn (corn (Zea mays); [19]) | Plant response rating, Corn (corn (Zea mays); [21]) | Plant response rating, Morningglory [11, 18] | Plant response rating, Morningglory [11, 19] | Plant response rating, Morningglory [11, 21] | Plant response rating, Pigweed [12, 18] | Plant response rating, Pigweed [12, 21] | Plant response rating, Nutsedge [15, 18] | Plant response rating, Nutsedge [15, 19] | Plant response rating (0 to 100), Nutsedge [15, 20] | Plant response rating, Nutsedge [15, 21] | Rice plant response rating (rice (Oryza saliva); Rate 250 g/ha) | Plant response rating, Rice (rice (Oryza saliva); Rate 62 g/ha) | Plant response rating, Rice (rice (Oryza saliva); Rate 125 g/ha)
85: Plant response rating, Bermudagrass [3, 19] | Plant response rating, Kochia (kochia (Kochia scoparia); [21])
30: Plant response rating, Ragweed, Common [5, 18] | Plant response rating, Soybean (soybean (Glycine max); [18]) | Plant response rating, Soybean (soybean (Glycine max); [19]) | Plant response rating, Barnyardgrass ([16]; Rate 125 g/ha)
60: Plant response rating, Ragweed, Common [5, 21] | Plant response rating (0 to 100), Soybean (soybean (Glycine max); [20]) | Plant response rating, Cupgrass, Woolly [14, 18]
100: Plant response rating, Bermudagrass [3, 18] | Plant response rating (0 to 100 where 0 is no effect and 100 is complete control), Bermudagrass [3, 20] | Plant response rating, Bermudagrass [3, 21] | Plant response rating, Crabgrass [6, 18] | Plant response rating, Crabgrass [6, 19] | Plant response rating (0 to 100), Crabgrass [6, 20] | Plant response rating, Crabgrass [6, 21] | Plant response rating, Foxtail, Giant [7, 18] | Plant response rating, Foxtail, Giant [7, 19] | Plant response rating (0 to 100), Foxtail, Giant [7, 20] | Plant response rating, Foxtail, Giant [7, 21] | Plant response rating (0 to 100), Goosegrass [8, 20] | Plant response rating (0 to 100), Kochia (kochia (Kochia scoparia); [20]) | Plant response rating, Lambsquarters [10, 18] | Plant response rating (0 to 100), Lambsquarters [10, 20] | Plant response rating, Lambsquarters [10, 21] | Plant response rating (0 to 100), Morningglory [11, 20] | Plant response rating (0 to 100), Pigweed [12, 20] | Plant response rating (0 to 100), Velvetleaf [13, 20]
70: Plant response rating (0 to 100), Ragweed, Common [5, 20] | Plant response rating, Goosegrass [8, 18] | Plant response rating, Kochia (kochia (Kochia scoparia); [18]) | Plant response rating, Kochia (kochia (Kochia scoparia); [19]) | Barnyardgrass plant response rating ([16]; Rate 250 g/ha) | Plant response rating (0 to 100), Sunflower (Sunflower [17])
20: Plant response rating, Johnsongrass ([9]; Rate 125 g/ha) | Plant response rating, Barnyardgrass ([16]; Rate 62 g/ha) | Rice plant response rating (rice (Oryza saliva); Rate 500 g/ha)
80: Plant response rating, Nightshade (Nightshade; Rate 62 g/ha, scale 0 to 100) | Plant response rating, Goosegrass [8, 21] | Plant response rating (0 to 100), Cupgrass, Woolly [14, 20] | Plant response rating, Cupgrass, Woolly [14, 21] | Barnyardgrass plant response rating ([16]; Rate 500 g/ha)
